From patent US20260078119A1, “DEGRADER COMPOUNDS AND USES THEREOF” (Bristol-Myers Squibb Company, priority 2024, published 2026) come the findings set out here.

One assay deals with CAL-51 cells. Nature of the assay: CAL-51 Cell Proliferation Assay. The class given is cell-based. Particulars: for EC50: Homo sapiens, 120 hours incubation, 10-point dose response, 4-fold dilutions starting at 10 μM, Cell-Titer-Glo, read-out: CAL-51 Prolif EC50; for CAL-51 Prolif Ymin: minimal percent of DMSO control observed in the concentrations tested (Ymin-obs), 120 hours. Put shortly:
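EC50 comes from a four-parameter logistic fit of blank-corrected, DMSO-normalised CellTiter-Glo signal after 120 h growth (37 °C, 350 cells/well, RPMI complete medium). Compounds ran as 10-point 4-fold series starting at 10 μM, duplicate, 0.1% DMSO. Ymin-obs records the minimal percent of DMSO control observed.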

A further assay has as its target T1, FAK (Homo sapiens, UniProt Q05397).
T1 construct: homozygous knock-in of a HiBiT tag (Promega Corporation, Madison, WI) to the C-terminus of the FAK gene in its natural genomic locus; endogenous in cells; host or cells: JHH-4-FAK-HiBiT clone d01 (CRISPR-Cas9 knock-in at the endogenous locus)
Put plainly: FAK-HiBiT Degradation Assay. It counts as cell-based. Particulars: for DC50: JHH-4-FAK-HiBiT clone d01 cells, two hours incubation, 10-point dose response, 3-fold dilution starting at 1 μM, Nano-Glo HiBiT luminescence, read-out: FAK HiBiT EC50; for FAK HiBiT Ymin: lower limit of the four parameter fit (value A), Ymax derived using DMSO control, JHH-4-FAK-HiBiT cells, two hours. Put shortly:
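Degradation read out by HiBiT lytic luminescence after 2 h compound exposure (top concentration 1 μM, 3-fold, 10 points) in JHH-4 clone d01 bearing endogenous FAK-HiBiT knock-in. Four-parameter logistic fit gave EC50 and Ymin; DMSO wells defined Ymax.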

T1 sequence (Q05397 whole entry): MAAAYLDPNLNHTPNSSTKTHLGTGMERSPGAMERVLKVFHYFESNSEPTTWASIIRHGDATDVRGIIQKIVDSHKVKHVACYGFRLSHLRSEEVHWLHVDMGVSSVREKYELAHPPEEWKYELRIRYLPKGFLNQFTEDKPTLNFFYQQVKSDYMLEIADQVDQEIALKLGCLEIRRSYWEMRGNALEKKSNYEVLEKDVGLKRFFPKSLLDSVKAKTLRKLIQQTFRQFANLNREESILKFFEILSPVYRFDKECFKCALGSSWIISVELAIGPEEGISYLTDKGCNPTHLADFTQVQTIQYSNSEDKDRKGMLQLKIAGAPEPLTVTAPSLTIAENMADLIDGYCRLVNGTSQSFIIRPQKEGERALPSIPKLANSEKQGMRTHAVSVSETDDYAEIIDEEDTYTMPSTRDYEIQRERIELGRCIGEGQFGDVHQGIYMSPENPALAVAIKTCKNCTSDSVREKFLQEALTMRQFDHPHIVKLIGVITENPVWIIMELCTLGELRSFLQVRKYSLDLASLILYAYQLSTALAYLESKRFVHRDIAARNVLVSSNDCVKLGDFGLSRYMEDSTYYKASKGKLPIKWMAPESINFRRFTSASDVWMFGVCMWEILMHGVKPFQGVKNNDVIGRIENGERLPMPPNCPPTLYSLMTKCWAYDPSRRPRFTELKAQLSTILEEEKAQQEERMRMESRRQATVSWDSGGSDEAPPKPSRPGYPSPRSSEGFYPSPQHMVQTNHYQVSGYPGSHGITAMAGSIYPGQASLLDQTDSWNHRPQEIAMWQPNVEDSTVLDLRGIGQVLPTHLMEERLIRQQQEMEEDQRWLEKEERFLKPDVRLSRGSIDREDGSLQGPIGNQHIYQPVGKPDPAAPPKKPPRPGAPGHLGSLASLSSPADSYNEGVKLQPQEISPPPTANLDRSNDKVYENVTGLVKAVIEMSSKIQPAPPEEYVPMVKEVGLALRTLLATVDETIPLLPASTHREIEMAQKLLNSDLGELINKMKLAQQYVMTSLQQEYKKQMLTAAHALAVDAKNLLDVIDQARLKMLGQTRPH

As for `CCOc1cnc(-c2cc(N3CC(F)C3)nc3c2cnn3Cc2ccc3c(c2)CN(C2CCC(=O)NC2=O)C3=O)c(C#N)c1` (stereo not shown) [Example 46, 2-(1-{[2-(2,6-dioxopiperidin-3-yl)-1-oxo-2,3-dihydro-1H-isoindol-5-yl]methyl}-6-(3-fluoroazetidin-1-yl)-1H-pyrazolo[3,4-b]pyridin-4-yl)-5-ethoxypyridine-3-carbonitrile], in the assay with CAL-51 cells, the EC50 was 0.91 nM and the “CAL-51 Prolif Ymin” value is given as 30.10. In addition, at FAK, the DC50 came to 1.79 nM and the “FAK HiBiT Ymin” value was 8.57.

For the compound `CCOc1cnc(-c2cc(N3CC(F)C3)nc3c2cnn3Cc2ccc3c(c2)CN(C2CCC(=O)NC2=O)C3=O)c(CC)c1` (stereo not shown) [Example 74, 3-(5-{[4-(5-ethoxy-3-ethylpyridin-2-yl)-6-(3-fluoroazetidin-1-yl)-1H-pyrazolo[3,4-b]pyridin-1-yl]methyl}-1-oxo-2,3-dihydro-1H-isoindol-2-yl)piperidine-2,6-dione], in the assay on CAL-51 cells, the half-maximal effective concentration (EC50) amounted to 4.11 nM and the “CAL-51 Prolif Ymin” value worked out at 34.11. At FAK, the DC50 was determined as 6.88 nM and the “FAK HiBiT Ymin” value is listed as 8.00.

Turning to `C[C@]1(O)CCN(c2nc3c(cnn3Cc3ccc4c(c3)CN([C@H]3CCC(=O)NC3=O)C4=O)c(-c3ncc(C(F)(F)F)cc3Cl)c2F)C1` [Example 140, (3S)-3-[5-({4-[3-chloro-5-(trifluoromethyl)pyridin-2-yl]-5-fluoro-6-[(3S)-3-hydroxy-3-methylpyrrolidin-1-yl]-1H-pyrazolo[3,4-b]pyridin-1-yl}methyl)-1-oxo-2,3-dihydro-1H-isoindol-2-yl]piperidine-2,6-dione], in the assay on CAL-51 cells, the EC50 was 2.2 nM and the “CAL-51 Prolif Ymin” value is reported as 29.76. At FAK, the DC50 is 3.11 nM and the “FAK HiBiT Ymin” value came to 9.35.

`CN(c1cc(-c2ncc(C(F)(F)F)cc2Cl)c2cnn(Cc3ccc4c(c3)CN([C@H]3CCC(=O)NC3=O)C4=O)c2n1)C1CC(C)(O)C1` (stereo partly drawn) [Example 83, (3S)-3-[5-({4-[3-chloro-5-(trifluoromethyl)pyridin-2-yl]-6-{methyl[(1r,3s)-3-hydroxy-3-methylcyclobutyl]amino}-1H-pyrazolo[3,4-b]pyridin-1-yl}methyl)-1-oxo-2,3-dihydro-1H-isoindol-2-yl]piperidine-2,6-dione]: in the assay with CAL-51 cells, the concentration giving a half-maximal response (EC50) amounted to 5.41 nM and the “CAL-51 Prolif Ymin” value came to 30.14. On FAK, the DC50 came out at 10.2 nM and the “FAK HiBiT Ymin” value was 10.27.

As for `Cc1nc2c(-c3ccc(F)cc3F)cc(N3CC(F)C3)nc2n1Cc1ccc2c(c1)CN(C1CCC(=O)NC1=O)C2=O` (stereo not shown) [Example 23, 3-(5-((7-(2,4-difluorophenyl)-5-(3-fluoroazetidin-1-yl)-2-methyl-3H-imidazo[4,5-b]pyridin-3-yl)methyl)-1-oxoisoindolin-2-yl)piperidine-2,6-dione], in the assay on CAL-51 cells, the EC50 came to 0.62 nM and the “CAL-51 Prolif Ymin” value stood at 20.44. Besides, at FAK, the DC50 came to 1.03 nM and the “FAK HiBiT Ymin” value is 7.69.

`CCOc1ccc(-c2c(F)c(N3CC[C@](C)(O)C3)nc3c2cnn3Cc2ccc3c(c2)CN([C@H]2CCC(=O)NC2=O)C3=O)c(Cl)c1` [Example 67, (3S)-3-(5-{[4-(2-chloro-4-ethoxyphenyl)-5-fluoro-6-[(3S)-3-hydroxy-3-methylpyrrolidin-1-yl]-1H-pyrazolo[3,4-b]pyridin-1-yl]methyl}-1-oxo-2,3-dihydro-1H-isoindol-2-yl)piperidine-2,6-dione]: in the assay on CAL-51 cells, the concentration giving a half-maximal response (EC50) stood at 1.6 nM and the “CAL-51 Prolif Ymin” value came to 28.60. At FAK, the DC50 is 5.06 nM and the “FAK HiBiT Ymin” value is listed as 9.35.

Turning to `COc1cnc(-c2cc(N3CC(F)C3)nc3c2cnn3Cc2ccc3c(c2)CN(C2CCC(=O)NC2=O)C3=O)c(C)c1` (stereo not shown) [Example 97, 3-(5-{[6-(3-fluoroazetidin-1-yl)-4-(5-methoxy-3-methylpyridin-2-yl)-1H-pyrazolo[3,4-b]pyridin-1-yl]methyl}-1-oxo-2,3-dihydro-1H-isoindol-2-yl)piperidine-2,6-dione], in the assay on CAL-51 cells, the concentration giving a half-maximal response (EC50) came to 14.4 nM and the “CAL-51 Prolif Ymin” value is 38.61. In addition, on FAK, the DC50 was 22.9 nM and the “FAK HiBiT Ymin” value turned out to be 12.95.

Consider `Cc1cc(F)cnc1-c1cc(N2CC(F)C2)nc2c1cnn2Cc1ccc2c(c1)CN([C@H]1CCC(=O)NC1=O)C2=O` [Example 144, (S)-3-(5-((4-(5-fluoro-3-methylpyridin-2-yl)-6-(3-fluoroazetidin-1-yl)-1H-pyrazolo[3,4-b]pyridin-1-yl)methyl)-1-oxoisoindolin-2-yl)piperidine-2,6-dione], for which, in the assay on CAL-51 cells, the EC50 is 7.14 nM and the “CAL-51 Prolif Ymin” value is 35.43. Besides, at FAK, the DC50 worked out at 10.1 nM and the “FAK HiBiT Ymin” value is listed as 11.17.

Regarding `Cc1cc(OC(C)C)cnc1-c1cc(N2CC(F)C2)nc2c1cnn2Cc1ccc2c(c1)CN(C1CCC(=O)NC1=O)C2=O` (stereo not shown) [Example 80, 3-(5-{[6-(3-fluoroazetidin-1-yl)-4-[3-methyl-5-(propan-2-yloxy)pyridin-2-yl]-1H-pyrazolo[3,4-b]pyridin-1-yl]methyl}-1-oxo-2,3-dihydro-1H-isoindol-2-yl)piperidine-2,6-dione], in the assay on CAL-51 cells, the concentration for a half-maximal effect (EC50) came out at 1.68 nM and the “CAL-51 Prolif Ymin” value is reported as 27.48. In addition, on FAK, the DC50 stood at 9.06 nM and the “FAK HiBiT Ymin” value amounted to 5.83.

Consider `CN(c1cc(-c2ncc(F)cc2Cl)c2cnn(Cc3ccc4c(c3)CN(C3CCC(=O)NC3=O)C4=O)c2n1)C(F)(F)F` (stereo not shown) [Example 53, 3-(5-{[4-(3-chloro-5-fluoropyridin-2-yl)-6-[methyl (trifluoromethyl)amino]-1H-pyrazolo[3,4-b]pyridin-1-yl]methyl}-1-oxo-2,3-dihydro-1H-isoindol-2-yl)piperidine-2,6-dione], for which, in the assay on CAL-51 cells, the concentration for a half-maximal effect (EC50) is 9.88 nM and the “CAL-51 Prolif Ymin” value turned out to be 39.88. Also, at FAK, the DC50 came to 2.45 nM and the “FAK HiBiT Ymin” value is given as 7.24.

Consider `O=C1CCC(N2Cc3c(ccc(Cn4ncc5c(-c6ncc(C(F)(F)F)cc6Cl)cc(N6CC(F)C6)nc54)c3F)C2=O)C(=O)N1` (stereo not shown) [Example 40, 3-[5-({4-[3-chloro-5-(trifluoromethyl)pyridin-2-yl]-6-(3-fluoroazetidin-1-yl)-1H-pyrazolo[3,4-b]pyridin-1-yl}methyl)-4-fluoro-1-oxo-2,3-dihydro-1H-isoindol-2-yl]piperidine-2,6-dione], for which, in the assay with CAL-51 cells, the concentration giving a half-maximal response (EC50) was 11.2 nM and the “CAL-51 Prolif Ymin” value is 36.00. For the same compound, at FAK, the DC50 was 1.15 nM and the “FAK HiBiT Ymin” value came to 6.87.

For the compound `N#Cc1ccc(-c2c(Cl)c(N3CC(F)C3)nc3c2cnn3Cc2ccc3c(c2)CN(C2CCC(=O)NC2=O)C3=O)c(F)c1` (stereo not shown) [Example 10, 4-(5-chloro-1-{[2-(2,6-dioxopiperidin-3-yl)-1-oxo-2,3-dihydro-1H-isoindol-5-yl]methyl}-6-(3-fluoroazetidin-1-yl)-1H-pyrazolo[3,4-b]pyridin-4-yl)-3-fluorobenzonitrile], in the assay on CAL-51 cells, the half-maximal effective concentration (EC50) was determined as 75.4 nM and the “CAL-51 Prolif Ymin” value was 33.21. Further, on FAK, the DC50 was determined as 0.56 nM and the “FAK HiBiT Ymin” value came to 6.93.

As for `O=C1CC[C@H](N2Cc3cc(Cn4ncc5c(-c6ncc(F)cc6F)cc(N6CC[C@H](O)C6)nc54)ccc3C2=O)C(=O)N1` [Example 123, (3S)-3-(5-{[4-(3,5-difluoropyridin-2-yl)-6-[(3S)-3-hydroxypyrrolidin-1-yl]-1H-pyrazolo[3,4-b]pyridin-1-yl]methyl}-1-oxo-2,3-dihydro-1H-isoindol-2-yl)piperidine-2,6-dione], in the assay on CAL-51 cells, the EC50 came to 28.3 nM and the “CAL-51 Prolif Ymin” value turned out to be 78.23. At FAK, the DC50 was 109 nM and the “FAK HiBiT Ymin” value is given as 45.54.

Consider `O=C1CC[C@H](N2Cc3nc(Cn4ncc5c(-c6ncc(C(F)(F)F)cc6Cl)cc(N6CC(F)C6)nc54)ccc3C2=O)C(=O)N1` [Example 76, (3S)-3-[2-({4-[3-chloro-5-(trifluoromethyl)pyridin-2-yl]-6-(3-fluoroazetidin-1-yl)-1H-pyrazolo[3,4-b]pyridin-1-yl}methyl)-5-oxo-5H,6H,7H-pyrrolo[3,4-b]pyridin-6-yl]piperidine-2,6-dione], for which, in the assay on CAL-51 cells, the concentration giving a half-maximal response (EC50) was 6.15 nM and the “CAL-51 Prolif Ymin” value stood at 34.59. Also, at FAK, the DC50 turned out to be 7.97 nM and the “FAK HiBiT Ymin” value turned out to be 9.51.

With `O=C1CCC(N2Cc3cc(Cn4ncc5c(-c6ncc(F)cc6Cl)cc(N6CC[C@@H](O)C6)nc54)ccc3C2=O)C(=O)N1` (stereo partly drawn) [Example 114, 3-(5-{[4-(3-chloro-5-fluoropyridin-2-yl)-6-[(3R)-3-hydroxypyrrolidin-1-yl]-1H-pyrazolo[3,4-b]pyridin-1-yl]methyl}-1-oxo-2,3-dihydro-1H-isoindol-2-yl)piperidine-2,6-dione], in the assay on CAL-51 cells, the EC50 came to 35 nM and the “CAL-51 Prolif Ymin” value is 40.82. Besides, at FAK, the DC50 worked out at 55.7 nM and the “FAK HiBiT Ymin” value was found to be 14.15.

Regarding `O=C1CC[C@H](N2Cc3cc(Cn4ncc5c(-c6ncc(F)cc6Cl)cc(N6CC(F)C6)nc54)ccc3C2=O)C(=O)N1` [Example 51, (3S)-3-(5-{[4-(3-chloro-5-fluoropyridin-2-yl)-6-(3-fluoroazetidin-1-yl)-1H-pyrazolo[3,4-b]pyridin-1-yl]methyl}-1-oxo-2,3-dihydro-1H-isoindol-2-yl)piperidine-2,6-dione], in the assay with CAL-51 cells, the concentration giving a half-maximal response (EC50) stood at 1.49 nM and the “CAL-51 Prolif Ymin” value turned out to be 30.14. Further, on FAK, the DC50 came to 2.23 nM and the “FAK HiBiT Ymin” value is recorded as 10.32.

The term EC50 denotes the concentration that produces a half-maximal response.
